# Like-named read-outs stand apart in the source and are kept apart here.
# Key:
# MCF-7 cells [1] = assay: MTT cytotoxicity assay on breast adenocarcinoma (MCF-7) cells; format: cell-based, human; conditions: for EC50: read-out: MCF-7 EC50 (μM) ± SE; for Selectivity Index (SI), MCF-7: ratio of EC50 against fibroblasts to EC50 against MCF-7 cells
# Method: (§1) The cytotoxic effects of DHA and LA derivatives against the breast cancer cell line (MCF-7) were assessed, with results compared to human dermal fibroblasts (HDFs) as a normal cell line. Both cell lines were provided by the Pasteur Institute of Iran (IPI). The cells were cultured in RPMI medium containing 10% fetal bovine serum (FBS) and 1% antibiotic solution (comprising 10,000 units of penicillin and 10 mg streptomycin in 0.9% NaCl). The cultures were incubated at 37°C with 5% CO2.
# (§2) The MTT assay was used as a standard method for evaluating the inhibitory effect of compounds. This colorimetric assay is based on the conversion of yellow MTT (3-[4,5-dimethylthiazol-2-yl]-2,5-diphenyltetrazolium bromide) to purple formazan crystals via enzymatic reduction by NAD(P)H-dependent oxidoreductase enzymes in metabolically active cells ([35]). According to a previously reported method, after 24 hours of incubation of cells (15,000 cells per well), six different concentrations of D1-D8 (6.25 to 200 μM) and L1-L8 (3.125 to 100 μM) were added to the wells, with each concentration performed in triplicate. After 48 hours of incubation, the culture medium was completely removed from the wells. MTT solution, prepared at a concentration of 0.5 mg/mL in phosphate-buffered saline (PBS), was added (100 µL per well) and incubated for 4 hours to allow metabolically active cells to reduce the MTT to insoluble formazan crystals. Subsequently, 100 µL of solubilizing solvent containing 16% sodium dodecyl sulfate (SDS) was added to each well, followed by an additional 2 hours of incubation ([36]). Cell viability was determined using a Cell Imaging Multi-Mode Microplate Reader (Biotek, Cytation 3, USA), measuring absorbance at 570 nm ([37], [38]).
# MCF-7 cells [2] = assay: Annexin V-FITC/PI flow cytometry, apoptosis and necrosis; format: cell-based, human; conditions: MCF-7, annexin V-FITC/PI staining, ½x, x, 2x EC50
# Method: Apoptosis and necrosis were measured using a dead cell apoptosis kit with annexin V-FITC and propidium iodide (PI) (ApoFlowExFITC, Exbio, Czech Republic) according to the manufacturer’s protocol. The MCF-7 cells were cultured as described in the cell culture section (section 3.3.1). […] Cells were collected through trypsinization, rinsed twice with PBS, and then resuspended in 500 μL of binding buffer. The cell suspensions were subsequently incubated with 5 μL of annexin V-FITC and 5 μL of PI for 10 minutes at room temperature in a dark environment. The cells were then assessed immediately using flow cytometry, and the data were analyzed using FlowJo version 7.6.5 (Tree Star, Inc., Ashland, USA).
# A distinguishing characteristic of cells undergoing apoptosis is the translocation of phosphatidylserine from the inner to the outer layers of the plasma membrane, which can be identified by annexin V in this assay. The PI identifies necrotic cells with compromised plasma membranes ([39]-[44]).
# [3] = system: human dermal fibroblasts (HDFs); assay: MTT cytotoxicity assay on normal human dermal fibroblasts (HDFs); format: cell-based; conditions: read-out: HDF EC50 (μM) ± SE
# Method: as §1, §2
# MCF-7 breast cancer cell = system: MCF-7 breast cancer cell; design: method as in PMID 31652764; conditions: MCF-7, MTT assay, 150 μM DHA; cited from earlier work
# [4] = Homo sapiens, MCF7, MTT, 48 h incubation, MCF-7
# [5] = Fibroblast, MTT, 48 h incubation, normal human dermal fibroblasts
Molecule,EC50 (MCF-7 cells [1]; [4]) [µM],"EC50 [3, 5] [µM]",further results
"4-((4Z,7Z,10Z,13Z,16Z,19Z)-docosa-4,7,10,13,16,19-hexaen-1-yl)morpholine [Compound D3]",,,"EC50 (MCF-7 cells [1]; MTT, 48 h incubation, MCF-7): 16 ± 2.89 µM; mode of cell death (MCF-7 cells [2]): predominantly induced apoptosis rather than necrosis; EC50 ([3]; MTT, 48 h incubation, normal human dermal fibroblasts): > 100 µM"
"CC/C=C\C/C=C\C/C=C\C/C=C\C/C=C\C/C=C\CCC(=O)NCCO [Compound D1, (4Z,7Z,10Z,13Z,16Z,19Z)-N-(2-hydroxyethyl) docosa-4,7,10,13,16,19-hexaenamide]",,,"EC50 (MCF-7 cells [1]; Homo sapiens, MCF7, 48 h): ≥ 100 µM; EC50 ([3]; Homo sapiens, Fibroblast, 48 h): ≥ 100 µM"
"CC/C=C\C/C=C\C/C=C\C/C=C\C/C=C\C/C=C\CCC(=O)N(CCO)CCO [Compound D2, (4Z,7Z,10Z,13Z,16Z,19Z)-N,N-bis(2-hydroxyethyl)docosa-4,7,10,13,16,19-hexaenamide]",≥ 100,> 100,
"CC/C=C\C/C=C\C/C=C\C/C=C\C/C=C\C/C=C\CCC(=O)Nc1ccc(O)cc1 [Compound D4, (4Z,7Z,10Z,13Z,16Z,19Z)-N-(4-hydroxyphenyl)docosa-4,7,10,13,16,19-hexaenamide]",74.3 ± 1.41,> 100,
"CC/C=C\C/C=C\C/C=C\C/C=C\C/C=C\C/C=C\CCC(=O)NCCc1ccccc1 [Compound D5, (4Z,7Z,10Z,13Z,16Z,19Z)-N-phenethyldocosa-4,7,10,13,16,19-hexaenamide]",≥ 100,,
"CC/C=C\C/C=C\C/C=C\C/C=C\C/C=C\C/C=C\CCC(=O)N1CCN(C)CC1 [Compound D6, (4Z,7Z,10Z,13Z,16Z,19Z)-1-(4-methylpiperazin-1-yl) docosa-4,7,10,13,16,19-hexaen-1-one]",≥ 100,,
"CC/C=C\C/C=C\C/C=C\C/C=C\C/C=C\C/C=C\CCC(=O)NCC(O)CO (stereo not shown) [Compound D7, (4Z,7Z,10Z,13Z,16Z,19Z)-N-(2,3-dihydroxypropyl) docosa-4,7,10,13,16,19-hexaenamide]",98.6 ± 1.19,> 100,
"CC/C=C\C/C=C\C/C=C\C/C=C\C/C=C\C/C=C\CCC(=O)NCCN [Compound D8, (4Z,7Z,10Z,13Z,16Z,19Z)-N-(2-aminoethyl) docosa-4,7,10,13,16,19-hexaenamide]",86 ± 5.41,> 100,
"CCCCC/C=C\C/C=C\CCCCCCCC(=O)NCCO [Compound L1, (9Z,12Z)-N-(2-hydroxyethyl) octadeca-9,12-dienamide]",≥ 100,,
"CCCCC/C=C\C/C=C\CCCCCCCC(=O)N(CCO)CCO [Compound L2, (9Z,12Z)-N,N-bis(2-hydroxyethyl) octadeca-9,12-dienamide]",≥ 100,,
"CCCCC/C=C\C/C=C\CCCCCCCC(=O)N1CCOCC1 [Compound L3, (9Z,12Z)-1-morpholinooctadeca-9,12-dien-1-one]",24.6 ± 1.81,≥ 100,"Selectivity Index (SI), MCF-7 (MCF-7 cells [1]): 6.88; mode of cell death (MCF-7 cells [2]): predominantly induced apoptosis rather than necrosis"
"CCCCC/C=C\C/C=C\CCCCCCCC(=O)Nc1ccc(O)cc1 [Compound L4, (9Z,12Z)-N-(4-hydroxyphenyl) octadeca-9,12-dienamide]",52.4 ± 6.79,≥ 100,"Selectivity Index (SI), MCF-7 (MCF-7 cells [1]): 3.53"
"CCCCC/C=C\C/C=C\CCCCCCCC(=O)NCC(O)CO (stereo not shown) [Compound L7, (9Z,12Z)-N-(2,3-dihydroxypropyl) octadeca-9,12-dienamide]",19.2 ± 2.93,64.8 ± 5.72,"Selectivity Index (SI), MCF-7 (MCF-7 cells [1]): 3.37; mode of cell death (MCF-7 cells [2]): predominantly induced apoptosis rather than necrosis"
"CC/C=C\C/C=C\C/C=C\C/C=C\C/C=C\C/C=C\CCC(=O)O [DHA, docosahexaenoic acid]",,,cell viability (MCF-7 breast cancer cell): significantly reduced
"N.N.[Cl][Pt][Cl] [cisplatin, reference compound]",,,"EC50 (MCF-7 cells [1]; MTT, 48 h incubation, MCF-7): 0.85 µM; Selectivity Index (SI), MCF-7 (MCF-7 cells [1]): 1.18"

# — PMC12297039, “Design, Synthesis, and Evaluation of Cytotoxic Effects of Functional Fatty Acid Derivatives as Potential Antineoplastic Agents for Breast Cancer” (Iranian Journal of Pharmaceutical Research : IJPR, 2025)
